Columns and labels:
human IRAK4 = target: T1, human IRAK4 (Homo sapiens, UniProt Q9NWZ3); assay: IRAK4 MSA (Mobility-Shift Assay) at Km ATP; format: biochemical; conditions: GST-IRAK4 1 nM, ATP 37 μM (Km); read-out: IC50 for inhibiting human IRAK4 kinase
T1 construct: purchased Cama (so in the source)
T1 sequence (Q9NWZ3 1-460): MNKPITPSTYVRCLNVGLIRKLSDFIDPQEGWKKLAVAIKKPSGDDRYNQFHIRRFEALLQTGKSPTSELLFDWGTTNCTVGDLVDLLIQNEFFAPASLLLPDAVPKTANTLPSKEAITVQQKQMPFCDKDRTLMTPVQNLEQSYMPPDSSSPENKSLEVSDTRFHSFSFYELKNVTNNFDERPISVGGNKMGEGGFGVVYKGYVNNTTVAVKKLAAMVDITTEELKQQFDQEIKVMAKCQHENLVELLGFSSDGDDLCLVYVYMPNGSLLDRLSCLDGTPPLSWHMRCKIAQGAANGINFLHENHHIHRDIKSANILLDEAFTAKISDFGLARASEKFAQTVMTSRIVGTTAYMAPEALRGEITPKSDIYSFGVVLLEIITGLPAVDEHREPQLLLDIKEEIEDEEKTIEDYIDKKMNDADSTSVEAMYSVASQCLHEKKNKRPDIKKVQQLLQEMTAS
Method: A recombinant fusion protein of N-terminal GST (glutathione-S-transferase) and human IRAK4 was used as enzyme (GST-IRAK4, kinase IRAK4 (Cama)) at a final concentration of 1 nM; ATP (Sigma) was at a final concentration of 37 μM; the substrates used for the kinase reaction were a 5-FAM (5-carboxyfluorescein)-labeled polypeptide (5-FAM-[…]-COOH) and a substrate peptide FAM-P8 (GL Biochem) at final concentrations of […].
In this assay, 500 μM solutions of the compounds were prepared in 100% DMSO, and serially 4-fold diluted to the 10th concentration gradient with 100% DMSO, followed by a 10-fold dilution in the compound buffer (50 mM HEPES. pH 7.5, 0.00015% Brij-35) to give intermediate dilutions of the compounds at a final concentration of 10 μM-0.04 nM containing 10% DMSO respectively, 5 μL of the dilutions were transferred into a black 384-well plate respectively.
IRAK4 was diluted to 2.5 nM in the kinase buffer (50 mM HEPES, pH 7.5, 0.00015% Brij-35, 2 mM DTT). 10 μL of the IRAK4 dilution was transferred to the 384-well plate and co-incubated with the compound for 10-15 min.
(§1) The substrate and ATP were diluted to 12.5 μM and 92.5 μM with reaction buffer (50 mM HEPES, pH 7.5, 0.00015% Brij-35, 10 mM MgCl2), respectively. 10 μL of the dilutions were transferred to a 384-well plate and incubated at 28° C. for 1 h respectively. The reaction was terminated by adding 25 μL of 50 mM EDTA to the 384-well plate.
The inhibition rates of IRAK4 by the compounds were calculated by measuring the rate of phosphorylated substrate using a Caliper EZ Reader (PerkinElmer) and the IC50 values were calculated by XL-fit software.

[1] = system: IL-6 release in LPS-induced Balb/c female mice; assay: Inhibition of IL-6 release in LPS-induced Balb/c female mice; format: in vivo, mouse; design: concentration or dose not given beside the values; conditions: administered 5 h before LPS induction, serum
Method: Objective of the test: To determine the inhibitory effect of the compounds by measuring the plasma IL-6 concentration in a Balb/c mouse model with LPS-induced inflammation.
2.1 Prepared mouse serum samples (sample batch no. 20181218)
4.1 Reagent kit was equilibrated at room temperature (25-28° C.) for 20 min. After each detection, the remaining reagents were stored at 4° C.
4.3 Preparing reference standard: 1 vial of reference standard substance was added with labeled volume of reference standard diluent. The mixtures were incubated for 15 min at room temperature. Then the mixtures were gently mixed to completely dissolve the substance to prepare a reference standard stock at a final concentration of 1000 μg/mL.
4.4 Dilution of samples: The sample in each group was diluted by […], i.e., a 2-fold dilution with sample assay buffer followed by another two-fold dilution with standard diluent.
4.5 The diluted samples or standards of different concentrations were added into corresponding wells at 100 μL/well respectively, and a background correcting well (or a blank well) was set by adding only TMB buffer and terminating solution. The wells were sealed with a transparent film and incubated at room temperature for 120 min.
4.6 The plate was subjected to 5 washes, each with 300 μL of washing buffer for 15-30 sec. The plate was dried on thick absorbent paper after the last wash.
4.7 Biotinylated antibody was added at 100 μL/well (Note: the biotinylated antibody was prepared in advance and could be used directly without further dilution). The wells were sealed with a transparent film and incubated at room temperature for 60 min.
4.8 The plate was subjected to 5 washes, each with 300 μL of washing buffer for 15-30 sec. The plate was dried on thick absorbent paper after the last wash.
4.9 Horseradish peroxidase-labeled streptavidin was added at 100 μL/well. The wells were sealed with a white film and incubated away from light at room temperature for 20 min.
4.10 The plate was subjected to 5 washes, each with 300 μL of washing buffer for 15-30 sec. The plate was dried on thick absorbent paper after the last wash.
4.11 The chromogenic reagent TMB was added 100 μL/well. The wells were sealed with a white film and incubated away from light at room temperature for 20 min.
4.12 The terminating solution was added at 50 μL/well and A450 value was measured right after mixing.

[2] = system: TNF-α release in LPS-induced Balb/c female mice; assay: Inhibition of TNF-α release in LPS-induced Balb/c female mice; format: in vivo, mouse; design: concentration or dose not given beside the values; conditions: oral gavage 5 h before LPS induction, serum 1.5 h after stimulation
Method: In the normal control groups, the animals received an intraperitoneal injection of normal saline (10 mL/kg) and in the model groups, the animals received LPS stimulation (Sigma CAT #L2630, i.p., 10 mL/kg, 0.2 mg/kg). During the assay, to the test compounds, DMSO, Solutol and 10 mM PBS were sequentially added to prepare a solution or suspension of required concentration for administration. For the vehicle, DMSO, Solutol and 10 mM PBS were mixed in a volume ratio of 5:15:80. In each of the groups, the animals were administered through oral gavage (10 mL/kg) 5 h before LPS (or saline) stimulation at predetermined doses, and euthanized with CO2 at 1.5 h after the stimulation for cardiac blood collection. The whole blood was not anticoagulated, incubated in wet ice for 1.5 h, and centrifuged at 2000×g at 4° C. for 10 min to separate the serum. The serum was frozen at −80° C. for TNF-α assay. Quantification of the TNF-α was done with TNF-α ELISA kit according to the manufacturer's instruction.

human IRAK1 = target: T2, human IRAK1 (Homo sapiens, UniProt P51617); assay: IRAK1 MSA (Mobility-Shift Assay) at Km ATP; format: biochemical
T2 construct: purchased Cama (so in the source)
Method: 5 μL of the intermediate dilutions were transferred into a black 384-well plate.
IRAK1 was diluted to 7.5 nM in the kinase buffer (50 mM HEPES, pH 7.5, 0.00015% Brij-35, 2 mM DTT). 10 μL of the IRAK1 dilution was transferred to the 384-well plate and co-incubated with the compound for 10-15 min.
as §1, with “and 242.5” for “and 92.5”, “dilutions was” for “dilutions were”, “1 h.” for “1 h respectively.”
The inhibition rates of IRAK1 by the compounds were calculated by measuring the rate of phosphorylated substrate using a Caliper EZ Reader (PerkinElmer) and the IC50 values were calculated by XL-fit software.

T2 sequence (P51617 whole entry): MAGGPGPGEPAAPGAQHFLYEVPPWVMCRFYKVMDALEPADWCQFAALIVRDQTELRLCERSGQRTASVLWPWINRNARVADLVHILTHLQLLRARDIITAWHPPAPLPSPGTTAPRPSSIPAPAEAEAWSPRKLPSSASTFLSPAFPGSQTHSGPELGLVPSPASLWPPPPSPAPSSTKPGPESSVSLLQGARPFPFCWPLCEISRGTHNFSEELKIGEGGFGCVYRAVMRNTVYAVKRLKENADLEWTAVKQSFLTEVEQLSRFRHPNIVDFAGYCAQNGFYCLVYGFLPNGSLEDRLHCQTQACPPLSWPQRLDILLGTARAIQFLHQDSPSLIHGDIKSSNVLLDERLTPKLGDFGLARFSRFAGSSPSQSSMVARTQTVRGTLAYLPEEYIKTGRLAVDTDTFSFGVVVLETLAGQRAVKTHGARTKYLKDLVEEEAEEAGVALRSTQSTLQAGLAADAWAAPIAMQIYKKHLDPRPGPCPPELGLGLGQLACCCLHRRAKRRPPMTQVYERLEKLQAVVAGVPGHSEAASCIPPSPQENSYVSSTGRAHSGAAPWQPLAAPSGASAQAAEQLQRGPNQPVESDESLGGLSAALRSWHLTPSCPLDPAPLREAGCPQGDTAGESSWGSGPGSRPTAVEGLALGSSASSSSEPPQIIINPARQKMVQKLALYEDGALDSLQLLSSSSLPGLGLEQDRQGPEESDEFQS

COc1cc2nn([C@H]3C[C@H](C(C)(C)O)C3)cc2cc1NC(=O)c1cnn2cccnc12 [MY-004-075]
IC50 (human IRAK4): 3.6 nM | Inhibition rate of IL-6 [1]: 96.88% | Inhibition rate of TNF-α [2]: 90.15%

CC(C)(O)c1cc2nn([C@H]3C[C@H](C(C)(C)O)C3)cc2cc1NC(=O)c1cccc(C(F)(F)F)n1 [MY-004-109]
IC50 (human IRAK1): 4.32 µM | IC50 (IRAK1)/IC50 (IRAK4) (human IRAK1; selectivity for IRAK4): 745 | IC50 (human IRAK4): 5.8 nM

From patent US20220204473A1, “COMPOUND AS IRAK INHIBITOR” (SHANGHAI MEIYUE BIOTECH DEVELOPMENT CO., LTD., priority 2018, published 2022)
